From patent USRE47689E1, “Compounds for treating spinal muscular atrophy” (PTC Therapeutics, Inc., priority 2011, dated 2019)
Where a name gives a salt, the structure may show the parent alone.

Experiments:
[1] = test system: SMN2 minigene (full length SMN2 minigene mRNA containing SMN2 exon 7); assay: SMN2 minigene mRNA splicing RT-qPCR assay in cultured cells; assay type: cell-based, human; details: Homo sapiens, HEK293-H; HEK293H cells stably transfected with SMN2-A minigene; 24 hours; 7-point concentration curve; 1.5-fold relative to vehicle-treated cells; read-out: EC1.5x for production of full length SMN2 mRNA
Summary of the method: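 HEK293H cells stably carrying the SMN2-A minigene treated 24 h at 37° C with compound (DMSO, 200× stock), then lysed. Multiplex RT-qPCR (SMN primers 0.4 μM final; 40 cycles) measures full-length exon 7-containing minigene mRNA, normalized to GAPDH and to vehicle; EC1.5x derived and binned by stars.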

Smn protein = Smn protein assay in cultured cells (SMN HTRF); assay type: cell-based, human; details: 48 hours; for EC1.5x (concentration giving 1.5-fold Smn protein increase): SMA Type 1 patient fibroblast cells (GM03813), 7-point concentration curve, SMN HTRF, concentration producing 1.5 times Smn protein vs DMSO vehicle control, read-out: EC1.5x for Smn protein expression; for maximum fold (Fold) increase of Smn protein: SMA patient fibroblast cells, 7-point concentration data, fold increase relative to vehicle control (SMN HTRF)
Summary of the method: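 Lysates in RIPA with protease inhibitors are incubated overnight at room temperature with HTRF anti-SMN antibodies. EC1.5x is derived from fold increase in ΔF over vehicle.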

| SMILES | melting point | EC (1.5-fold) [1] [µM] | EC1.5x (concentration giving 1.5-fold Smn protein increase) (Smn protein) [nM] | maximum fold (Fold) increase of Smn protein (Smn protein) |
| --- | --- | --- | --- | --- |
| Cl.O=c1oc2cc(N3CCNCC3)ccc2cc1-c1nc2c(C(F)(F)F)cccc2o1 | 339 to 341 °C | – | – | – |
| Cl.O=c1oc2cc(N3CCNCC3)ccc2cc1-c1nc2cccc(C(F)(F)F)c2o1 | 297 to 307 °C | – | – | – |
| Cc1cn2cc(-c3cc4ccc(C5=CCNCC5)cc4oc3=O)nc2c(C)n1 | 205 to 211 °C | – | – | – |
| O=c1oc2cc(N3C[C@@H]4C[C@H]3CN4)ccc2cc1-c1cn2cccnc2n1 (as salt: hydrochloride) [Compound 129, 7-[(1S,4S)-2,5-diazabicyclo[2.2.1]hept-2-yl]-3-(imidazo[1,2a]pyrimidin-2-yl)-2H-chromen-2-one hydrochloride (1:3)] | > 300 °C | – | – | – |
| Cc1ccn2cc(-c3cc4ccc(O[C@@H]5CCNC5)cc4oc3=O)nc2c1 (as salt: hydrochloride) [Compound 323, 3-(7-methylimidazo[1,2-a]pyridin-2-yl)-7-[(3R)-pyirolidin-3-yloxy]-2H-chromen-2-one hydrochloride (1:2)] | 271 to 275 °C | – | – | – |
| O=c1oc2cc(N3CCNCC3)ccc2cc1-c1nc2ccccc2s1 (as salt: hydrochloride) [Cpd 4, 3-(1,3-benzothiazol-2-yl)-7-(piperazin-1-yl)-2H-chromen-2-one hydrochloride] | 250 °C (dec.) | – | – | – |
| O=c1oc2cc(N3CCNCC3)ccc2cc1-c1nc2c(Cl)cccc2s1 (as salt: hydrochloride) [Cpd 5, 3-(4-chloro-1,3-benzothiazol-2-yl)-7-(piperazin-1-yl)-2H-chromen-2-one hydrochloride] | 290 °C (dec.) | – | – | – |
| O=C(Nc1ccccc1)c1cc2ccc(N3CCNCC3)cc2oc1=O (as salt: trifluoroacetate) [Cpd 3, 2-oxo-N-phenyl-7-(piperazin-1-yl)-2H-chromene-3-carboxamide trifluoroacetate] | 238 to 248 °C | – | – | – |
| O=c1oc2cc(OC3CCNC3)ccc2cc1-c1cn2cccnc2n1 (stereo in doubt) (as salt: hydrochloride) [Cpd 321, 3-(imidazo[1,2-a]pyrimidin-2-yl)-7-[(3R)-pyrrolidin-3-yloxy]-2H-chromen-2-one hydrochloride (1:2)] | 240 to 250 °C | – | – | – |
| CN1CCN(c2ccc3cc(-c4cccc(C(F)(F)F)c4)c(=O)oc3c2)CC1 [Compound 11, 7-(4-methylpiperazin-1-yl)-3-[3-(trifluoromethyl)phenyl]-2H-chromen-2-one] | 150 to 156 °C | 3 to 30 | – | – |
| Cc1cccc2oc(-c3cc4ccc(N5CCN(C)CC5)cc4oc3=O)nc12 [Compound 21, 3-(4-methyl-1,3-benzoxazol-2-yl)-7-(4-methylpiperazin-1-yl)-2H-chromen-2-one] | 217 to 219 °C | 3 to 30 | – | – |
| Cc1cn2cc(-c3cc4ccc(N5CCN[C@@H](C)C5)cc4oc3=O)cc(F)c2n1 [Compound 984, 3-(8-fluoro-2-methylimidazo[1,2-a]pyridin-6-yl)-7-[(3S)-3-methylpiperazin-1-yl]-2H-chromen-2-one] | – | < 0.1 | < 300 | ***** (fold increase >1.65) |
| Cc1cn2cc(-c3cc4ccc(N5CC6(CNC6)C5)cc4oc3=O)cc(F)c2n1 [Compound 985, 7-(2,6-diazaspiro[3.3]hept-2-yl)-3-(8-fluoro-2-methylimidazo[1,2-a]pyridin-6-yl)-2H-chromen-2-one] | – | < 0.1 | < 300 | ***** (fold increase >1.65) |
| Cc1cn2cc(-c3cc4ccc(N5CCNCC5)cc4oc3=O)cc(F)c2n1 [Compound 986, 3-(8-fluoro-2-methylimidazo[1,2-a]pyridin-6-yl)-7-(piperazin-1-yl)-2H-chromen-2-one] | – | < 0.1 | < 300 | ***** (fold increase >1.65) |
| O=c1oc2cc(N3CCNCC3)ccc2cc1-c1nc2ccccc2s1 [Cpd 4, 3-(1,3-benzothiazol-2-yl)-7-(piperazin-1-yl)-2H-chromen-2-one hydrochloride] | – | 1 to 3 | – | * (maximum fold increase of ≤1.2) |
| O=c1oc2cc(N3CCNCC3)ccc2cc1-c1nc2c(Cl)cccc2s1 [Cpd 5, 3-(4-chloro-1,3-benzothiazol-2-yl)-7-(piperazin-1-yl)-2H-chromen-2-one hydrochloride] | – | 0.3 to 1 | – | * (maximum fold increase of ≤1.2) |
| Cl.O=c1oc2cc(C3CCNCC3)ccc2cc1-c1nc2c(Cl)cccc2s1 [Cpd 18, 3-(4-chloro-1,3-benzothiazol-2-yl)-7-(piperidin-4-yl)-2H-chromen-2-one hydrochloride] | – | 0.3 to 1 | – | * (maximum fold increase of ≤1.2) |
| CN1CCN(C(=O)c2ccc3cc(-c4nc5c(Cl)cccc5s4)c(=O)oc3c2)CC1 [Cpd 28, 3-(4-chloro-1,3-benzothiazol-2-yl)-7-[(4-methylpiperazin-1-yl)carbonyl]-2H-chromen-2-one] | – | 3 to 30 | – | * (maximum fold increase of ≤1.2) |
| CSc1nccn2cc(-c3cc4ccc(N5CCNCC5)cc4oc3=O)nc12 [Cpd 398, 3-[8-(methylsulfanyl)imidazo[1,2-a]pyrazin-2-yl]-7-(piperazin-1-yl)-2H-chromen-2-one] | – | 1 to 3 | – | * (maximum fold increase of ≤1.2) |
| Cc1cn2cc(-c3cc4ccc(N5CCN[C@H](C)C5)cc4oc3=O)nc2c(C)n1 [Cpd 536, 3-(6,8-dimethylimidazo[1,2-a]pyrazin-2-yl)-7-[(3R)-3-methylpiperazin-1-yl]-2H-chromen-2-one] | – | < 0.1 | < 300 | ***** (fold increase >1.65) |
| Cc1cn2cc(-c3cc4ccc(N[C@H]5CCNC5)cc4oc3=O)nc2c(C)n1 [Cpd 563, 3-(6,8-dimethylimidazo[1,2-a]pyrazin-2-yl)-7-[(3S)-pyrrolidin-3-ylamino]-2H-chromen-2-one] | – | < 0.1 | < 300 | ***** (fold increase >1.65) |
| Cc1cn2cc(-c3cc4ccc(C5CCNCC5)cc4oc3=O)ccc2n1 [Cpd 825, 3-(2-methylimidazo[1,2-a]pyridin-6-yl)-7-(piperidin-4-yl)-2H-chromen-2-one] | – | < 0.1 | < 300 | ***** (fold increase >1.65) |
| CCN1CCC(c2ccc3cc(-c4cc5c(C)nc(C)cn5n4)c(=O)oc3c2)CC1 [Cpd 853, 3-(4,6-dimethylpyrazolo[1,5-a]pyrazin-2-yl)-7-(1-ethylpiperidin-4-yl)-2H-chromen-2-one] | – | 1 to 3 | – | * (maximum fold increase of ≤1.2) |
| Cc1cn2cc(-c3cc4ccc(N5CC6(CNC6)C5)cc4oc3=O)nc2c(C)n1 [Cpd 971, 7-(2,6-diazaspiro[3.3]hept-2-yl)-3-(6,8-dimethylimidazo[1,2-a]pyrazin-2-yl)-2H-chromen-2-one] | – | < 0.1 | < 300 | ***** (fold increase >1.65) |
